Measured values: PubChem BioAssay (NCI)
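48-hour exposure; five concentrations; linearly interpolated endpoints. GI50 is the concentration that inhibits growth by half. TGI marks complete inhibition of growth.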

Assays:
Assay in all cases: DTP human tumour cell line panel, 48 h
RPMI-8226 leukemia = system: RPMI-8226 leukemia
SK-MEL-2 melanoma = system: SK-MEL-2 melanoma
NCI-H522 lung = system: NCI-H522 lung
HOP-62 NSCLC = system: HOP-62 NSCLC
U251 CNS = system: U251 CNS
OVCAR-5 ovarian = system: OVCAR-5 ovarian
NCI-H460 lung = system: NCI-H460 lung
BT-549 breast = system: BT-549 breast
UACC-257 melanoma = system: UACC-257 melanoma
COLO 205 colon = system: COLO 205 colon
SK-MEL-28 melanoma = system: SK-MEL-28 melanoma
EKVX NSCLC = system: EKVX NSCLC
K-562 leukemia = system: K-562 leukemia
HL-60(TB) leukemia = system: HL-60(TB) leukemia
UACC-62 melanoma = system: UACC-62 melanoma
NCI-H226 lung = system: NCI-H226 lung
SF-268 CNS = system: SF-268 CNS
MDA-MB-435 = system: MDA-MB-435
PC-3 prostate = system: PC-3 prostate
SK-MEL-5 melanoma = system: SK-MEL-5 melanoma
CAKI-1 renal = system: CAKI-1 renal
HT29 colon = system: HT29 colon
HCC-2998 colon = system: HCC-2998 colon
SNB-19 CNS = system: SNB-19 CNS
UO-31 renal = system: UO-31 renal
ACHN renal = system: ACHN renal
DU-145 prostate = system: DU-145 prostate
SN12C renal = system: SN12C renal
MALME-3M melanoma = system: MALME-3M melanoma
SW-620 colon = system: SW-620 colon
SK-OV-3 ovarian = system: SK-OV-3 ovarian
SF-295 CNS = system: SF-295 CNS
HS 578T breast = system: HS 578T breast
OVCAR-8 ovarian = system: OVCAR-8 ovarian
M14 melanoma = system: M14 melanoma
A549 NSCLC = system: A549 NSCLC
RXF 393 renal = system: RXF 393 renal
SF-539 CNS = system: SF-539 CNS
TK-10 renal = system: TK-10 renal
SNB-75 CNS = system: SNB-75 CNS
786-0 renal = system: 786-0 renal
NCI/ADR-RES ovarian = system: NCI/ADR-RES ovarian
A498 renal = system: A498 renal
MDA-MB-231 breast = system: MDA-MB-231 breast
HOP-92 NSCLC = system: HOP-92 NSCLC
OVCAR-3 ovarian = system: OVCAR-3 ovarian

C1CCC([PH+](C2CCCCC2)C2CCCCC2[PH+](C2CCCCC2)C2CCCCC2)CC1.[Au].[CH-]1CCCCC1CC1CCCC[N-]1 (stereo unspecified)
GI50 (RPMI-8226 leukemia): 186 nM
TGI (RPMI-8226 leukemia): 944 nM
GI50 (SK-MEL-2 melanoma): 398 nM
TGI (SK-MEL-2 melanoma): 1380 nM
GI50 (NCI-H522 lung): 290 nM
TGI (NCI-H522 lung): 1560 nM
GI50 (HOP-62 NSCLC): 349 nM
TGI (HOP-62 NSCLC): 2580 nM
GI50 (U251 CNS): 199 nM
TGI (U251 CNS): 1590 nM
GI50 (OVCAR-5 ovarian): 452 nM
TGI (OVCAR-5 ovarian): 2010 nM
GI50 (NCI-H460 lung): 303 nM
TGI (NCI-H460 lung): 1090 nM
GI50 (BT-549 breast): 330 nM
TGI (BT-549 breast): 1510 nM
GI50 (UACC-257 melanoma): 323 nM
TGI (UACC-257 melanoma): 1940 nM
GI50 (COLO 205 colon): 262 nM
TGI (COLO 205 colon): 696 nM
GI50 (SK-MEL-28 melanoma): 433 nM
TGI (SK-MEL-28 melanoma): 1940 nM
GI50 (EKVX NSCLC): 302 nM
TGI (EKVX NSCLC): 1970 nM
GI50 (K-562 leukemia): 246 nM
TGI (K-562 leukemia): > 100000 nM
GI50 (HL-60(TB) leukemia): 277 nM
TGI (HL-60(TB) leukemia): 833 nM
GI50 (UACC-62 melanoma): 249 nM
GI50 (NCI-H226 lung): 561 nM
TGI (NCI-H226 lung): 2700 nM
GI50 (SF-268 CNS): 405 nM
TGI (SF-268 CNS): 2110 nM
GI50 (MDA-MB-435): 286 nM
TGI (MDA-MB-435): 1010 nM
GI50 (PC-3 prostate): 283 nM
TGI (PC-3 prostate): 1930 nM
GI50 (SK-MEL-5 melanoma): 288 nM
TGI (SK-MEL-5 melanoma): 813 nM
GI50 (CAKI-1 renal): 791 nM
TGI (CAKI-1 renal): 2290 nM
GI50 (HT29 colon): 342 nM
TGI (HT29 colon): 1980 nM
GI50 (HCC-2998 colon): 404 nM
TGI (HCC-2998 colon): 1490 nM
GI50 (SNB-19 CNS): 327 nM
TGI (SNB-19 CNS): 1460 nM
GI50 (UO-31 renal): 1300 nM
TGI (UO-31 renal): 2610 nM
GI50 (ACHN renal): 902 nM
TGI (ACHN renal): 2100 nM
GI50 (DU-145 prostate): 363 nM
TGI (DU-145 prostate): 2200 nM
GI50 (SN12C renal): 285 nM
TGI (SN12C renal): 2930 nM
GI50 (MALME-3M melanoma): 192 nM
TGI (MALME-3M melanoma): 739 nM
GI50 (SW-620 colon): 371 nM
TGI (SW-620 colon): 1410 nM
GI50 (SK-OV-3 ovarian): 355 nM
TGI (SK-OV-3 ovarian): 1360 nM
GI50 (SF-295 CNS): 305 nM
TGI (SF-295 CNS): 1280 nM
GI50 (HS 578T breast): 276 nM
TGI (HS 578T breast): 1690 nM
GI50 (OVCAR-8 ovarian): 264 nM
TGI (OVCAR-8 ovarian): > 100000 nM
GI50 (M14 melanoma): 297 nM
TGI (M14 melanoma): 1270 nM
GI50 (A549 NSCLC): 241 nM
TGI (A549 NSCLC): 3030 nM
GI50 (RXF 393 renal): 277 nM
TGI (RXF 393 renal): 1120 nM
GI50 (SF-539 CNS): 355 nM
TGI (SF-539 CNS): 1410 nM
GI50 (TK-10 renal): 516 nM
TGI (TK-10 renal): 2050 nM
GI50 (SNB-75 CNS): 230 nM
TGI (SNB-75 CNS): 971 nM
GI50 (786-0 renal): 518 nM
TGI (786-0 renal): 2020 nM
GI50 (NCI/ADR-RES ovarian): 2860 nM
TGI (NCI/ADR-RES ovarian): > 100000 nM
GI50 (A498 renal): 145 nM
TGI (A498 renal): 673 nM
GI50 (MDA-MB-231 breast): 227 nM
TGI (MDA-MB-231 breast): 689 nM
GI50 (HOP-92 NSCLC): 212 nM
TGI (HOP-92 NSCLC): 714 nM
GI50 (OVCAR-3 ovarian): 318 nM
TGI (OVCAR-3 ovarian): 1200 nM
